Results reported in patent US11590116B2 (THERAVANCE BIOPHARMA R&D IP, LLC, priority 2019, dated 2023).

Legend:
[1] = test system: TGF-β-stimulated SMAD3 phosphorylation in BEAS-2B cells; assay: Cellular ALK5 potency assay, inhibition of TGF-β stimulated pSMAD3 formation in BEAS-2B cells; assay type: cell-based; conditions: Homo sapiens; inhibition of TGF-β stimulated pSMAD3 formation, BEAS-2B cells; read-out: BEAS2B pIC50 (converted)
How it was run: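 pSMAD3 was quantified by AlphaLISA in BEAS-2B lysates after 10 ng/mL TGF-β (final) for 30 min. Before stimulation, cells received compound for 1 h at 37° C in supplemented HBSS. Values are pIC50, relative to TGF-β-stimulated cells without compound.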

[2] = target: T1, recombinant human ALK5 (TGF-βR1) protein (Homo sapiens, UniProt P36897); assay: Biochemical ALK5 (TGF-βR1) assay to measure pKi (LANCE Ultra ULight kinase assay); conditions: apparent pKi from pIC50 by Cheng-Prusoff, read-out: ALK5 pKi (converted)
T1 construct: purchased Life Technologies PR9075A
T1 sequence (P36897 34-503): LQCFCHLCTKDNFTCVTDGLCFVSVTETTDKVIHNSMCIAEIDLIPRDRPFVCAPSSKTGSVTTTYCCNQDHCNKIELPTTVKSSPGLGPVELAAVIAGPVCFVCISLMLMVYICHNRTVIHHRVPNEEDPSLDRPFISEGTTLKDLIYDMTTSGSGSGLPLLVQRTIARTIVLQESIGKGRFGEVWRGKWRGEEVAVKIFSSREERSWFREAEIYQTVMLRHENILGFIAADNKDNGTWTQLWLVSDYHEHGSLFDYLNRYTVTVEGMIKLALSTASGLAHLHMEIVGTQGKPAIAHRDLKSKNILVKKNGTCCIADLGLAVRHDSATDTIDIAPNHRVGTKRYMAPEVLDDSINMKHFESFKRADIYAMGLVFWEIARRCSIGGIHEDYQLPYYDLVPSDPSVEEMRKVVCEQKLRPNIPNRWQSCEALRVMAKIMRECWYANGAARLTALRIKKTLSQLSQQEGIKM
How it was run: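 After a 60 min room-temperature preincubation of ALK5 with compound, phosphorylation proceeds 60 min at 37 °C on ATP addition (125 μM as 5× stock). Detection: Eu-labelled phospho-Thr1342 Topo IIα antibody in EDTA buffer, pH 7.0; emission 665 nm.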

Work on `Cc1nc(-c2n[nH]cc2-c2ccc3ncc(-c4nc5c(s4)CNCC5)cc3n2)ccc1F` [Compound 329, 2-[6-[3-(5-fluoro-6-methyl-2-pyridyl)-1H-pyrazol-4-yl]-1,5-naphthyridin-3-yl]-4,5,6,7-tetrahydrothiazolo[5,4-c]pyridine] yielded an IC50 [1] of 25.1 to 158 nM and a Ki [2] of 0.0398 to 0.316 nM.

Compound `COC(=O)CC1CN(CCNc2cnc3ccc(-c4nc[nH]c4-c4cccc(C)n4)cc3c2)CCN1` (stereo not shown) [Compound 322, methyl 2-[4-[2-[[6-[5-(6-methyl-2-pyridyl)-1H-imidazol-4-yl]-3-quinolyl]amino]ethyl]piperazin-2-yl]acetate] has an IC50 [1] of 200 to 1260 nM and a Ki [2] of 0.0398 to 0.316 nM.

For `Cc1nc(-c2[nH]cnc2-c2ccc3ncc(NCCN4CCCC4)cc3n2)ccc1F` [Compound 568, 6-[5-(5-fluoro-6-methyl-2-pyridyl)-1H-imidazol-4-yl]-N-(2-pyrrolidin-1-ylethyl)-1,5-naphthyridin-3-amine], the IC50 [1] was 25.1 to 158 nM and the Ki [2] was 0.0398 to 0.316 nM.

Compound `Cc1cccc(-c2n[nH]c(N)c2-c2ccc3ncc(N4CCNCC4)cc3n2)n1` [Compound 238, 3-(6-methyl-2-pyridyl)-4-(7-piperazin-1-yl-1,5-naphthyridin-2-yl)-1H-pyrazol-5-amine] has an IC50 [1] of 1580 to 10000 nM and a Ki [2] of 0.398 to 3.16 nM.

In the case of `Cc1cccc(-c2[nH]cnc2-c2ccc3ncc(-c4cn5c(n4)CNCC5)cc3n2)n1` [Compound 414, 2-(5-(6-methylpyridin-2-yl)-1H-imidazol-4-yl)-7-(5,6,7,8-tetrahydroimidazo[1,2-a]pyrazin-2-yl)-1,5-naphthyridine], the IC50 [1] is reported as 25.1 to 158 nM and the Ki [2] is reported as 0.0398 to 0.316 nM.

`Cc1cccc(-c2n[nH]cc2-c2ccc3ncc(-c4cccs4)cc3n2)n1` [Compound 80, 2-[3-(6-methyl-2-pyridyl)-1H-pyrazol-4-yl]-7-(2-thienyl)-1,5-naphthyridine] was tested, and the IC50 [1] was 25.1 to 158 nM and the Ki [2] was 0.0398 to 0.316 nM.

`Cc1nc(-c2n[nH]cc2-c2ccc3ncc(-c4cnc5n4CCN5)cc3n2)ccc1F` [Compound 332, 7-(6,7-dihydro-5H-imidazo[1,2-a]imidazol-3-yl)-2-[3-(5-fluoro-6-methyl-2-pyridyl)-1H-pyrazol-4-yl]-1,5-naphthyridine] was tested, and the IC50 [1] was 25.1 to 158 nM and the Ki [2] was under 0.0316 nM.

For `Cc1cccc(-c2[nH]cnc2-c2ccc3ncc(-c4cncc(CN5C[C@@H](C)N[C@@H](C)C5)c4)cc3c2)n1` [Compound 1106, 3-[5-[[(3S,5R)-3,5-dimethylpiperazin-1-yl]methyl]-3-pyridyl]-6-[5-(6-methyl-2-pyridyl)-1H-imidazol-4-yl]quinoline], the IC50 [1] was 25.1 to 158 nM and the Ki [2] was 0.0398 to 0.316 nM.

In the case of `Cc1cccc(-c2[nH]cnc2-c2ccc3ncc(-c4ccc5c(c4)CC[C@@H]5N)cc3c2)n1` [Compound 1056, (1S)-5-[6-[5-(6-methyl-2-pyridyl)-1H-imidazol-4-yl]-3-quinolyl]indan-1-amine], the IC50 [1] is reported as 25.1 to 158 nM and the Ki [2] is reported as 0.0398 to 0.316 nM.

`Cc1cccc(-c2[nH]cnc2-c2ccc3ncc(-c4ccnc(C(=O)O[C@@H]5CCNC5)c4)cc3c2)n1` [Compound 1050, [(3R)-pyrrolidin-3-yl] 4-[6-[5-(6-methyl-2-pyridyl)-1H-imidazol-4-yl]-3-quinolyl]pyridine-2-carboxylate] was tested, and the IC50 [1] was 200 to 1260 nM and the Ki [2] was 0.0398 to 0.316 nM.

`COc1[nH]nc(-c2cccc(C)n2)c1-c1ccc2ncc(N3CCNCC3)cc2n1` [Compound 33, 2-(5-methoxy-3-(6-methylpyridin-2-yl)-1H-pyrazol-4-yl)-7-(piperazin-1-yl)-1,5-naphthyridine] was tested, and the IC50 [1] was 25.1 to 158 nM and the Ki [2] was 0.0398 to 0.316 nM.

`Cc1cccc(-c2n[nH]cc2-c2ccc3nccc(NCC(=O)N4CCOCC4)c3n2)n1` [Compound 825, 2-[[6-[3-(6-methyl-2-pyridyl)-1H-pyrazol-4-yl]-1,5-naphthyridin-4-yl]amino]-1-morpholino-ethanone] was tested, and the IC50 [1] was 25.1 to 158 nM and the Ki [2] was 0.398 to 3.16 nM.

`Cc1cccc(-c2[nH]cnc2-c2ccc3ncc(N4C[C@@H](C)N[C@@H](C)C4)cc3c2)n1` [Compound 148, 3-[(3R,5S)-3,5-dimethylpiperazin-1-yl]-6-[5-(6-methyl-2-pyridyl)-1H-imidazol-4-yl]quinoline] was tested, and the IC50 [1] was 25.1 to 158 nM and the Ki [2] was 0.0398 to 0.316 nM.

For `Cc1cccc(-c2[nH]nnc2-c2ccc3ncc(N4CCNCC4)cc3n2)n1` [Compound 479, 2-[5-(6-methyl-2-pyridyl)-1H-triazol-4-yl]-7-piperazin-1-yl-1,5-naphthyridine], the IC50 [1] was 200 to 1260 nM and the Ki [2] was 0.398 to 3.16 nM.

`Cc1nc(-c2n[nH]cc2-c2ccc3ncc(N4CCC(N(C)C)CC4)cc3n2)ccc1F` [Compound 514, 1-[6-[3-(5-fluoro-6-methyl-2-pyridyl)-1H-pyrazol-4-yl]-1,5-naphthyridin-3-yl]-N,N-dimethyl-piperidin-4-amine] was tested, and the IC50 [1] was 25.1 to 158 nM and the Ki [2] was 0.0398 to 0.316 nM.

For `Cc1cccc(-c2[nH]cnc2-c2ccc3ncc(-c4cccc(C(=O)OCCN5CCNCC5)n4)cc3c2)n1` [Compound 1151, 2-piperazin-1-ylethyl 6-[6-[5-(6-methyl-2-pyridyl)-1H-imidazol-4-yl]-3-quinolyl]pyridine-2-carboxylate], the IC50 [1] was 200 to 1260 nM and the Ki [2] was 0.0398 to 0.316 nM.

`Cc1cccc(-c2n[nH]cc2-c2ccc3ncc(-c4cnn(CCN(C)C)c4)cc3n2)n1` [Compound 221, N,N-dimethyl-2-[4-[6-[3-(6-methyl-2-pyridyl)-1H-pyrazol-4-yl]-1,5-naphthyridin-3-yl]pyrazol-1-yl]ethanamine] showed an IC50 [1] of 25.1 to 158 nM and a Ki [2] of under 0.0316 nM.

`Cc1cccc(-c2[nH]cnc2-c2ccc3ncc(-c4cc(C(=O)OC5CNC5)ccn4)cc3c2)n1` [Compound 1074, azetidin-3-yl 2-[6-[5-(6-methyl-2-pyridyl)-1H-imidazol-4-yl]-3-quinolyl]pyridine-4-carboxylate] showed an IC50 [1] of 25.1 to 158 nM and a Ki [2] of 0.0398 to 0.316 nM.

Work on `Cc1cccc(-c2[nH]cnc2-c2ccc3ncc(-c4cnn(CCN)c4)cc3c2)n1` [Compound 572, 2-[4-[6-[5-(6-methyl-2-pyridyl)-1H-imidazol-4-yl]-3-quinolyl]pyrazol-1-yl]ethanamine] yielded an IC50 [1] of 25.1 to 158 nM and a Ki [2] of 0.0398 to 0.316 nM.

For `Cc1cccc(-c2n[nH]cc2-c2ccc3ncc(CO)cc3n2)n1` [Compound 126, [6-[3-(6-methyl-2-pyridyl)-1H-pyrazol-4-yl]-1,5-naphthyridin-3-yl]methanol], the IC50 [1] was 25.1 to 158 nM and the Ki [2] was 0.0398 to 0.316 nM.

For `Cc1cccc(-c2c(-c3ccc4ncc(N5CCC(N(C)C)C5)cc4c3)nnn2Cc2ccccc2)n1` (stereo not shown) [Compound 38, 1-[6-[1-benzyl-5-(6-methyl-2-pyridyl)triazol-4-yl]-3-quinolyl]-N,N-dimethyl-pyrrolidin-3-amine], the IC50 [1] was 1580 to 10000 nM and the Ki [2] was 0.398 to 3.16 nM.

`CNCCn1ccc(-c2cnc3ccc(-c4nc[nH]c4-c4cccc(C)n4)cc3c2)n1` [Compound 494, N-methyl-2-[3-[6-[5-(6-methyl-2-pyridyl)-1H-imidazol-4-yl]-3-quinolyl]pyrazol-1-yl]ethanamine] showed an IC50 [1] of 25.1 to 158 nM and a Ki [2] of 0.0398 to 0.316 nM.

With `Cc1cccc(-c2[nH]cnc2-c2ccc3ncc(C4=CCNCC4)cc3c2)n1` [Compound 472, 6-[5-(6-methyl-2-pyridyl)-1H-imidazol-4-yl]-3-(1,2,3,6-tetrahydropyridin-4-yl)quinoline] the IC50 [1] was under 20 nM and the Ki [2] was under 0.0316 nM.

For `Cc1cccc(-c2n[nH]cc2-c2ccc3ncc(-c4cnn(CCN)c4)cc3c2)n1` [Compound 435, 2-[4-[6-[3-(6-methyl-2-pyridyl)-1H-pyrazol-4-yl]-3-quinolyl]pyrazol-1-yl]ethanamine], the IC50 [1] was 25.1 to 158 nM and the Ki [2] was under 0.0316 nM.

`Cc1cccc(-c2[nH]cnc2-c2ccc3ncc(-c4cccc(C(=O)O)c4)cc3c2)n1` [Compound 794, 3-[6-[5-(6-methyl-2-pyridyl)-1H-imidazol-4-yl]-3-quinolyl]benzoic acid] showed an IC50 [1] of 1580 to 10000 nM and a Ki [2] of 0.0398 to 0.316 nM.

`Cc1cccc(-c2n[nH]cc2-c2ccc3ncc(NC(=O)CCCN4CCOCC4)cc3n2)n1` [Compound 358, N-[6-[3-(6-methyl-2-pyridyl)-1H-pyrazol-4-yl]-1,5-naphthyridin-3-yl]-4-morpholino-butanamide] showed an IC50 [1] of 25.1 to 158 nM and a Ki [2] of 0.0398 to 0.316 nM.

`Cc1cccc(-c2[nH]cnc2-c2ccc3ncc(C(=O)O[C@H]4CCCC[C@H]4N)cc3c2)n1` [Compound 882, (1S,2R)-2-aminocyclohexyl 6-(5-(6-methylpyridin-2-yl)-1H-imidazol-4-yl)quinoline-3-carboxylate] showed an IC50 [1] of 25.1 to 158 nM and a Ki [2] of 3.98 to 31.6 nM.

Compound `Cc1cccc(-c2[nH]cnc2-c2ccc3ncc(N4CCC(C(=O)OC5CNC5)CC4)cc3c2)n1` [Compound 705, azetidin-3-yl 1-[6-[5-(6-methyl-2-pyridyl)-1H-imidazol-4-yl]-3-quinolyl]piperidine-4-carboxylate] has an IC50 [1] of 200 to 1260 nM and a Ki [2] of 0.0398 to 0.316 nM.

`Cc1cccc(-c2nnn(C)c2-c2ccc3ncc(N4CCCNCC4)cc3c2)n1` [Compound 567, 3-(1,4-diazepan-1-yl)-6-[3-methyl-5-(6-methyl-2-pyridyl)triazol-4-yl]quinoline] showed an IC50 [1] of 25.1 to 158 nM and a Ki [2] of 0.398 to 3.16 nM.
